Laboratory results reported in patent publication US9115385B2, “Methods and compositions for topoisomerase I modulated tumor suppression” (RG BIOPHARMA, LLC, priority 2006, dated 2015).

T1: topoisomerase I (Homo sapiens, UniProt P11387)
T1 construct: endogenous in cells; host or cells: H358 and H23 cells
T1 sequence (P11387 2-765 limits assumed): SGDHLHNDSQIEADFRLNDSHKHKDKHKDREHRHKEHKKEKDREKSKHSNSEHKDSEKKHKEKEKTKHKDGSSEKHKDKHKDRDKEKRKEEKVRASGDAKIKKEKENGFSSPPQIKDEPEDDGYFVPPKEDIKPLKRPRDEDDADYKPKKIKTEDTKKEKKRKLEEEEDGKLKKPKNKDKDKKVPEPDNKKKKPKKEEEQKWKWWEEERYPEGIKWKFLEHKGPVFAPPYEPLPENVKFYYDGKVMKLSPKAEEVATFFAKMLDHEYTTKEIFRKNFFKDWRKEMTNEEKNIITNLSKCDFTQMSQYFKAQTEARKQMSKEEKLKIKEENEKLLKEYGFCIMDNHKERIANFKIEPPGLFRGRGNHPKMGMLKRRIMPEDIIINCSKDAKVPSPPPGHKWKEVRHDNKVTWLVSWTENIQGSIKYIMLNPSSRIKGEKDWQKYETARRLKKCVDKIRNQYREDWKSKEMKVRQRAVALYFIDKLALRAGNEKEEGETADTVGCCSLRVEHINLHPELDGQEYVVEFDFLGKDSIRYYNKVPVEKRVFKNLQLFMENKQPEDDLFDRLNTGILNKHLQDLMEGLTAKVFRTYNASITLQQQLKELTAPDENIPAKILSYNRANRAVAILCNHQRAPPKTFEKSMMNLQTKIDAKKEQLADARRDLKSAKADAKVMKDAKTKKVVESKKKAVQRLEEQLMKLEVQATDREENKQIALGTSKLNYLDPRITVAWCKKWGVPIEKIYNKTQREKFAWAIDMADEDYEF

B1: thioredoxin ARF-N-terminus: thioredoxin fusion of the N-terminal 64 amino acid residues of ARF, does not bind topoisomerase I (protein, UniProt Q8N726 1-64, looked up, fragment)
chain: MVRRFLVTLRIRRACGPPRVRVFVVHIPRLTGEWAAPGAPAAVALVLMLLRSQRLGQQPLPRRP
modifications: thioredoxin fusion

Tests used:
[1] = target: T1, topoisomerase I; experiment: topoisomerase I plasmid relaxation assay, agent added to nuclear extracts in vitro; assay type: biochemical; conditions: for effect on H358 topoisomerase activity: 3, 9, 27 ng added to 0.06 μg H358 extract; for effect on H23 topoisomerase activity: 3, 9, 27 ng added to 0.6 μg H23 extract
Method: Similar assays were carried out using the amount of each respective nuclear extract that produced a 50% conversion of supercoiled to relaxed form (0.06 and 0.6 μg extract protein per reaction for H358 and H23, respectively), and added increasing amounts of purified thioredoxin-ARF (3, 9, 27 ng).
Topoisomerase I Assays: Assays were carried out using the Topoisomerase I Assay Kit (Topogen, Florida), according to the instructions provided with the kit and using the high salt nuclear extracts prepared as described above. Briefly, 0.125 μg supercoiled plasmid DNA was incubated with 0-1.3 μg of nuclear extract for 30 minutes at 37° C. The reaction was stopped by adding stop loading dye supplied in the kit and electrophoresed on a 1% agarose/TAE (10 mM TRIS-acetate/1 mM EDTA) gel until the dye front had reached the bottom of the gel. The gel was then stained for 20 minutes in 0.5 μg/mL ethidium bromide, destained in deionized water for 30 minutes, and electrophoresed for an additional hour to enhance band visibility. The gel was photographed and band intensities were analyzed digitally using a Kodak digital camera and analysis software. Some assays were carried out with alkaline phosphatase-treated extracts, prepared as described below, or in the presence of ARF or ARF1β thioredoxin fusion proteins (3, 9, 27 ng), prepared as described above (see pull-down assays).

[2] = target: T1, topoisomerase I; experiment: phosphoserine Western of topoisomerase I after in vitro enzyme treatment; assay type: biochemical
From the text: (§1) The dephosphorylated topoisomerase I from H358 cells could no longer be activated by addition of increasing amounts of ARF fusion protein (FIG. 3B, lanes 7-9).

[3] = test system: ARF/topoisomerase I complex; experiment: ARF binding / co-immunoprecipitation of topoisomerase I after in vitro enzyme treatment; set-up: species or system human
From the text: as §1

[4] = purified recombinant human topoisomerase I

Row | Molecule | effect on H358 topoisomerase activity [1] | effect on H23 topoisomerase activity [1] | topoisomerase I activity in vitro ([1]; H358 and H23 nuclear extracts treated with the enzyme) | topoisomerase I serine phosphorylation ([2]; H358 and H23 nuclear extracts) | serine phosphorylation of purified recombinant human topoisomerase I [2, 4] | co-immunoprecipitation of topoisomerase I with ARF / complex formation ([3]; nuclear extracts) | binding of recombinant ARF fusion protein by purified recombinant human topoisomerase I [3, 4]
1 | Thioredoxin-ARF: purified recombinant human ARF-thioredoxin fusion protein, full length | enhanced the activity of H358 topoisomerase in a dose-dependent manner | no effect |  |  |  |  | 
2 | alkaline phosphatase |  |  | abolished their topoisomerase I activity | eliminated serine phosphorylation | abolished serine phosphorylation | failed to co-immunoprecipitate | abolished its ability to bind recombinant ARF fusion protein
3 | B1 | Neither H358 not H23 topoisomerase activities responded | Neither H358 not H23 topoisomerase activities responded |  |  |  |  | 
